Legend:
CXCR4 [1] = target: T1, CXCR4 (Homo sapiens, UniProt P61073); experiment: Competition binding assay vs [^18F]RPS-544 in PC3-CXCR4 cells; settings: approx. 5 pM [^18F]RPS-544; p = 0.85
T1 construct: expressed in transfected cells; host or cells: PC3 (human prostate cancer) cells stably transduced with CXCR4
Experimental: (§1) PC3-CXCR4 cells were plated in 12-well plates at a density of 500,000 cells per well and incubated for 48 h at 37 °C/5% CO2. Prior to the binding assay the cells were incubated in fresh media and 370–555 kBq of [^68Ga]Pentixafor or [^18F]RPS-544 was added to each well. The corresponding concentration of [^68Ga]Pentixafor in each well was 100 nM, and the concentration of [^18F]RPS-544 was approximately 5 pM. Then non-radioactive ligands were added to give a final ligand concentration in the range 0.001–10,000 nM. A total of eight concentrations were studied, and each concentration was tested in triplicate. The cells were incubated for 60 min at 37 °C/5% CO2. The media was removed under suction, the cells were washed with cold PBS 1X and detached and transferred to tubes for counting in 1 M NaOH. The cells were counted in a Wizard^2 Gamma Counter (PerkinElmer, Waltham, MA, USA). Non-specific binding was subtracted, and the IC50 values were determined by assuming a simple competitive binding interaction and fitting the data to a sigmoidal Hill plot in Origin 9.0 (OriginLab, Northampton, MA, USA). Potencies are expressed as IC50 ± standard deviation (Supplemental Data, Figure S7).

CXCR4 [2] = target: T1, CXCR4; experiment: Saturation binding assay in PC3-CXCR4 cells; settings: for Kd: saturation binding, PC3-CXCR4 cells; for Hill Slope, Saturation Binding Experiment: value ± SD
Experimental: To determine the dissociation constants, saturation binding assays were performed in the PC3-CXCR4 cells. The cells were plated as described above, and approximately 5 nM of the radioligand was added to each well. Then the corresponding non-radioactive ligand was added to give a final concentration in the range 0.001–10,000 nM. A total of eight concentrations were tested, and each concentration was tested in triplicate. The samples were washed and counted as described above. Non-specific binding was subtracted, and Kd values were determined by performing a nonlinear one site binding curve fit with equation y = (Bmax · x)/(Kd + x). Values are expressed as Kd ± standard deviation (Supplemental Data, Figure S8).

CXCR4 [3] = target: T1, CXCR4; experiment: Competition binding assay vs [^68Ga]Pentixafor in PC3-CXCR4 cells; settings: for IC50: vs 100 nM [^68Ga]Pentixafor, PC3-CXCR4 cells, 60 min 37 °C; for Hill Slope, Competitive Binding Experiment: vs [^68Ga]Pentixafor, value ± SD
Experimental: as §1

PC3-CXCR4 cells [4] = experiment: Cell-associated activity in PC3-CXCR4 cells; type: cell-based, human; settings: 1 h
Experimental: Maximum cell-associated activity was calculated by subtracting the cell uptake of the radioactive ligand at the highest non-radioactive ligand concentration of 10 µM (which we considered to be non-specific uptake/binding) from the cell uptake at the lowest non-radioactive ligand concentration of 10^−5 µM.

[5] = Biodistribution in mice bearing bilateral PC3-WT/PC3-CXCR4 xenograft tumors; type: in vivo, BALB/c mice
Experimental: (§2) All animal studies were approved by the Institutional Animal Care and Use Committee of Weill Cornell Medicine (Protocol Number: 2015-0066) and were undertaken in accordance with the guidelines set forth by the USPHS Policy on Humane Care and Use of Laboratory Animals. Animals were housed under standard conditions in approved facilities with 12 h light/dark cycles. Food and water was provided ad libitum throughout the course of the studies. Hairless 6-to-8-week old male BALB/c inbred athymic nude mice (Jackson Laboratory, Bar Harbor, ME, USA) were inoculated bilaterally with 0.2 mL of a 1:1 mixture of 10^7 PC3-CXCR4 cells in PBS and Matrigel (Corning, Tewksbury, MA, USA) subcutaneously in the left shoulder and 0.2 mL of a 1:1 mixture of 10^7 PC3-WT cells in PBS and Matrigel subcutaneously in the right shoulder. Imaging and biodistribution studies were performed three weeks post-implantation, when tumors were approximately 100–300 mm^3.
(§3) For the biodistribution studies, tumor-bearing animals (n = 5/compound/time point) were injected intravenously with 50–100 μL of a 9% v/v EtOH/saline solution containing approximately 1.1 MBq of the radioligand. […] The mice were euthanized at 1 or 2 h p.i. and tissues including blood, heart, lungs, liver, small intestine, large intestine, stomach (with contents), spleen, pancreas, kidneys, muscle, bone, PC3-WT tumors, PC3-CXCR4 tumors, and tail were collected. All organs were weighed and placed in test tubes for counting in a Wizard^2 Gamma Counter (PerkinElmer, Waltham, MA, USA). For comparison, 1% injected activity standards were prepared and counted along with the tissue samples. The tails were counted to correct for any dose extravasation. Activity in each tissue was corrected for decay and for injected activity and expressed as percent injected dose per gram of tissue (%ID/g) ± standard error.

[6] = test system: PC3-CXCR4 xenograft tumors; experiment: as above; type: in vivo, BALB/c mice
Experimental: as §2, §3

PC3-CXCR4 cells [7] = experiment: Internalization in PC3-CXCR4 cells; type: cell-based, human; settings: after 135 min incubation
Experimental: Internalization studies were performed for [^18F]RPS-534 and [^18F]RPS-547 in a time dependent manner. PC3-CXCR4 cells were plated as described above in 12-well plates and incubated for 48 h prior to the experiment. The media was exchanged and [^18F]RPS-534 or [^18F]RPS-547 (10^−5 μM; approximately 400 kBq) was added to each well. All experiments were performed in triplicate. […] Then the media was removed under suction at the corresponding temperature, and the cells washed with 1 mL PBS. Cell surface-bound activity was collected by two successive 5 min incubations of 0.5 mL of a 50 mM glycine buffer (pH = 2.8) performed at 4 °C or 37 °C. The cells were then washed with 1 mL ice-cold PBS and detached with 1 mL ice cold 1 M NaOH. Detached cells were collected and counted along with the washes. An aliquot of the administered radioactivity (10% IA) was also counted and used for quantification. The activity found in the NaOH fractions of the 4 °C plates was subtracted from the activities of the fractions at 37 °C to correct for non-specific binding. Internalized activity was expressed as the fraction of activity in the NaOH fraction relative to the total activity added.

[8] = 1 h p.i., blocked by co-injection of 5 mg/kg AMD-3100

T1 sequence (P61073 whole entry): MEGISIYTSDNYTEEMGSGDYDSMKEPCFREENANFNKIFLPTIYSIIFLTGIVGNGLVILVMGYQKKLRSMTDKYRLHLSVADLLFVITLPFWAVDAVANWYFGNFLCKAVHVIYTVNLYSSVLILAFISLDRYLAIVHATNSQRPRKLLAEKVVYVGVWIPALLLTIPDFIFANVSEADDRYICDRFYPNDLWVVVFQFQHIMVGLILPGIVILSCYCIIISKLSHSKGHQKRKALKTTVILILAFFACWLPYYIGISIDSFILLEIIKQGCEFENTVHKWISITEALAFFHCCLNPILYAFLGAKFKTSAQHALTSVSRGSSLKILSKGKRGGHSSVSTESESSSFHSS

FCCn1cc(-c2cc(CNCc3ccccn3)ccc2CN2CCCNCCNCCCNCC2)nn1 [RPS-533]
IC50 vs [^18F]RPS-544 compared with IC50 vs [^68Ga]Pentixafor (CXCR4 [1]): not significantly different | Kd (CXCR4 [2]): 366 ± 70 nM | Hill Slope, Saturation Binding Experiment (CXCR4 [2]): 1.12 ± 0.05 | IC50 (CXCR4 [3]): 356 ± 100 nM | Hill Slope, Competitive Binding Experiment (CXCR4 [3]): 1.07 ± 0.36 | Cell-Associated Activity (PC3-CXCR4 cells [4]): 2.1 ± 0.4 %IA | Blood tissue activity ([5]; 1 h p.i.): 0.30±0.06 %ID/g | Bone tissue activity ([6]; 1 h p.i.): 1.22±0.03 %ID/g | Heart tissue activity ([6]; 1 h p.i.): 0.57±0.05 %ID/g | Kidneys tissue activity ([6]; 1 h p.i.): 12.17 ± 0.78 %ID/g | Large Intestine tissue activity ([6]; 1 h p.i.): 0.23±0.02 %ID/g | Liver tissue activity ([6]; 1 h p.i.): 3.69±0.21 %ID/g | Lungs tissue activity ([6]; 1 h p.i.): 0.60±0.08 %ID/g | Muscle tissue activity ([6]; 1 h p.i.): 0.67±0.08 %ID/g | PC3-CXCR4 Tumor Uptake ([6]; 1 h p.i.): 1.93 ± 0.18 %ID/g | PC3-CXCR4 Tumor-to-Tissue Ratio Blood ([6]; 1 h p.i.): 6.9 ± 0.2 | PC3-CXCR4 Tumor-to-Tissue Ratio Bone ([6]; 1 h p.i.): 1.4 ± 0.7 | PC3-CXCR4 Tumor-to-Tissue Ratio Kidneys ([6]; 1 h p.i.): 0.2 ± 0.1 | PC3-CXCR4 Tumor-to-Tissue Ratio Liver ([6]; 1 h p.i.): 0.5 ± 0.1 | PC3-CXCR4 Tumor-to-Tissue Ratio Lungs ([6]; 1 h p.i.): 3.3 ± 0.4 | PC3-CXCR4 Tumor-to-Tissue Ratio Muscle ([6]; 1 h p.i.): 2.2 ± 0.3 | PC3-CXCR4 Tumor-to-Tissue Ratio PC3-WT ([6]; 1 h p.i.): 2.0 ± 0.4 | PC3-WT tumor activity ([6]; 1 h p.i.): 0.91±0.19 %ID/g | Pancreas tissue activity ([6]; 1 h p.i.): 0.44±0.02 %ID/g | Small Intestine tissue activity ([6]; 1 h p.i.): 2.19±0.05 %ID/g | Spleen tissue activity ([6]; 1 h p.i.): 0.52±0.02 %ID/g | Stomach tissue activity ([6]; 1 h p.i.): 0.17±0.04 %ID/g

FCCn1cc(-c2cc(CN3CCCNCCNCCCNCC3)ccc2CNCc2ccccn2)nn1 [RPS-534]
IC50 vs [^18F]RPS-544 compared with IC50 vs [^68Ga]Pentixafor (CXCR4 [1]): not significantly different | Kd (CXCR4 [2]): 176 ± 30 nM | Hill Slope, Saturation Binding Experiment (CXCR4 [2]): 1.05 ± 0.15 | decrease in affinity relative to RPS-544 (CXCR4 [3]): 30 fold | IC50 (CXCR4 [3]): 218 ± 38 nM | Hill Slope, Competitive Binding Experiment (CXCR4 [3]): 1.15 ± 0.34 | internalized activity (PC3-CXCR4 cells [7]): approximately 2 %IA | internalized share of total cell-associated activity (PC3-CXCR4 cells [7]): approximately 7% | Cell-Associated Activity (PC3-CXCR4 cells [4]): 18.5 ± 3.7 %IA | Blood tissue activity ([5]; 1 h p.i.): 0.30±0.08 %ID/g | Blood tissue activity [5, 8]: 0.26±0.15 %ID/g | Blood tissue activity ([5]; 2 h p.i.): 0.08±0.02 %ID/g | Bone tissue activity ([6]; 1 h p.i.): 1.44±0.04 %ID/g | Heart tissue activity ([6]; 1 h p.i.): 0.25±0.01 %ID/g | Kidneys tissue activity ([6]; 1 h p.i.): 7.43±0.96 %ID/g | Large Intestine tissue activity ([6]; 1 h p.i.): 0.29±0.06 %ID/g | Liver tissue activity ([6]; 1 h p.i.): 19.14 ± 0.42 %ID/g | Lungs tissue activity ([6]; 1 h p.i.): 1.01±0.09 %ID/g | Muscle tissue activity ([6]; 1 h p.i.): 0.19±0.03 %ID/g | PC3-CXCR4 Tumor Uptake ([6]; 1 h p.i.): 7.20 ± 0.30 %ID/g | PC3-CXCR4 Tumor-to-Tissue Ratio Blood ([6]; 1 h p.i.): 27.5 ± 0.4 | PC3-CXCR4 Tumor-to-Tissue Ratio Bone ([6]; 1 h p.i.): 5.7 ± 0.4 | PC3-CXCR4 Tumor-to-Tissue Ratio Kidneys ([6]; 1 h p.i.): 1.1 ± 0.4 | PC3-CXCR4 Tumor-to-Tissue Ratio Liver ([6]; 1 h p.i.): 0.4 ± 0.2 | PC3-CXCR4 Tumor-to-Tissue Ratio Lungs ([6]; 1 h p.i.): 8.0 ± 0.4 | PC3-CXCR4 Tumor-to-Tissue Ratio Muscle ([6]; 1 h p.i.): 42.4 ± 0.1 | PC3-CXCR4 Tumor-to-Tissue Ratio PC3-WT ([6]; 1 h p.i.): 2.5 ± 0.4 | PC3-WT tumor activity ([6]; 1 h p.i.): 2.85±0.22 %ID/g | Pancreas tissue activity ([6]; 1 h p.i.): 0.28±0.02 %ID/g | Small Intestine tissue activity ([6]; 1 h p.i.): 3.67±0.44 %ID/g | Spleen tissue activity ([6]; 1 h p.i.): 2.49±0.04 %ID/g | Stomach tissue activity ([6]; 1 h p.i.): 0.16±0.03 %ID/g | Bone tissue activity [6, 8]: 0.44±0.15 %ID/g | Heart tissue activity [6, 8]: 0.13±0.04 %ID/g | Kidneys tissue activity [6, 8]: 5.10±0.33 %ID/g | Large Intestine tissue activity [6, 8]: 0.40±0.58 %ID/g | Liver tissue activity [6, 8]: 12.01 ± 4.67 %ID/g | Lungs tissue activity [6, 8]: 0.48±0.08 %ID/g | Muscle tissue activity [6, 8]: 0.17±0.16 %ID/g | PC3-CXCR4 tumor activity [6, 8]: 2.01±0.93 %ID/g | PC3-WT tumor activity [6, 8]: 1.21±0.47 %ID/g | Pancreas tissue activity [6, 8]: 0.32±0.01 %ID/g | Small Intestine tissue activity [6, 8]: 5.35±1.74 %ID/g | Spleen tissue activity [6, 8]: 0.12±0.03 %ID/g | Stomach tissue activity [6, 8]: 0.14±0.11 %ID/g | Bone tissue activity ([6]; 2 h p.i.): 1.26±0.06 %ID/g | Heart tissue activity ([6]; 2 h p.i.): 0.14±0.02 %ID/g | Kidneys tissue activity ([6]; 2 h p.i.): 5.05±0.80 %ID/g | Large Intestine tissue activity ([6]; 2 h p.i.): 4.60±0.57 %ID/g | Liver tissue activity ([6]; 2 h p.i.): 18.60±1.74 %ID/g | Lungs tissue activity ([6]; 2 h p.i.): 0.59±0.03 %ID/g | Muscle tissue activity ([6]; 2 h p.i.): 0.11±0.03 %ID/g | PC3-CXCR4 Tumor-to-Tissue Ratio Blood ([6]; 2 h p.i.): 51.1 ± 0.2 | PC3-CXCR4 Tumor-to-Tissue Ratio Bone ([6]; 2 h p.i.): 3.5 ± 0.2 | PC3-CXCR4 Tumor-to-Tissue Ratio Kidneys ([6]; 2 h p.i.): 0.9 ± 0.2 | PC3-CXCR4 Tumor-to-Tissue Ratio Liver ([6]; 2 h p.i.): 0.2 ± 0.1 | PC3-CXCR4 Tumor-to-Tissue Ratio Lungs ([6]; 2 h p.i.): 7.1 ± 0.2 | PC3-CXCR4 Tumor-to-Tissue Ratio Muscle ([6]; 2 h p.i.): 38.8 ± 0.2 | PC3-CXCR4 Tumor-to-Tissue Ratio PC3-WT ([6]; 2 h p.i.): 2.5 ± 0.2 | PC3-CXCR4 tumor activity ([6]; 2 h p.i.): 4.31±0.47 %ID/g | PC3-WT tumor activity ([6]; 2 h p.i.): 1.66±0.08 %ID/g | Pancreas tissue activity ([6]; 2 h p.i.): 0.18±0.06 %ID/g | Small Intestine tissue activity ([6]; 2 h p.i.): 1.53±0.25 %ID/g | Spleen tissue activity ([6]; 2 h p.i.): 1.90±0.23 %ID/g | Stomach tissue activity ([6]; 2 h p.i.): 0.12±0.05 %ID/g | reduction of tumor activity by blocking ([6]; blocking dose 5 mg/kg AMD-3100): approximately 70% | PC3-CXCR4 tumor uptake relative to [^18F]RPS-544 ([6]; mouse, in vivo): 2 fold | tumor-to-heart ratio ([6]; time not restated, follows the 1 h p.i. tumor-to-blood ratio): 28.8 ± 0.3

Reference: paper PMC6514812, “[^18F]Fluoroethyltriazolyl Monocyclam Derivatives as Imaging Probes for the Chemokine Receptor CXCR4” (Molecules, 2019)
